Measured values taken from ChEMBL document CHEMBL4680147, “Discovery of 6'-chloro-N-methyl-5'-(phenylsulfonamido)-[3,3'-bipyridine]-5-carboxamide (CHMFL-PI4K-127) as a novel Plasmodium falciparum PI(4)K inhibitor with potent antimalarial activity against both blood and liver stages of Plasmodium” (Eur J Med Chem, 2020).

Experiments:
Plasmodium falciparum [1] = assay: Antimalarial activity against sulphadoxine-resistant blood stage Plasmodium falciparum 3D7 infected in human O+ erythrocytes incubated for 72 hrs by SYBR Green 1 dye based fluorescence assay; format: functional, organism-based; conditions: 3D7, Erythrocyte
[2] = Inhibition of recombinant His-tagged Plasmodium falciparum 3D7 PI4K expressed in baculovirus infected Sf9 cells using PI:PS as substrate incubated for 1 hr in presence of ATP by ADP-Glo kinase assay
Plasmodium falciparum [3] = assay: Antimalarial activity against mefloquine/chloroquine/pyrimethamine resistant Plasmodium falciparum Dd2 infected in human O+ erythrocytes incubated for 72 hrs by SYBR Green 1 dye based fluorescence assay; format: functional, organism-based; conditions: Dd2, Erythrocyte
[4] = molecular target: Phosphatidylinositol 4,5-bisphosphate 3-kinase catalytic subunit alpha isoform (Homo sapiens, UniProt P42336); assay: Inhibition of human PI3Kalpha by ADP-Glo kinase assay
[5] = molecular target: Phosphatidylinositol 4,5-bisphosphate 3-kinase catalytic subunit beta isoform (Homo sapiens, UniProt P42338); assay: Inhibition of human PI3Kbeta by ADP-Glo kinase assay
[6] = molecular target: T1, Phosphatidylinositol 4,5-bisphosphate 3-kinase catalytic subunit delta isoform (Homo sapiens, UniProt O00329); assay: Inhibition of human PI3Kdelta by ADP-Glo kinase assay
T1 sequence (O00329 whole entry): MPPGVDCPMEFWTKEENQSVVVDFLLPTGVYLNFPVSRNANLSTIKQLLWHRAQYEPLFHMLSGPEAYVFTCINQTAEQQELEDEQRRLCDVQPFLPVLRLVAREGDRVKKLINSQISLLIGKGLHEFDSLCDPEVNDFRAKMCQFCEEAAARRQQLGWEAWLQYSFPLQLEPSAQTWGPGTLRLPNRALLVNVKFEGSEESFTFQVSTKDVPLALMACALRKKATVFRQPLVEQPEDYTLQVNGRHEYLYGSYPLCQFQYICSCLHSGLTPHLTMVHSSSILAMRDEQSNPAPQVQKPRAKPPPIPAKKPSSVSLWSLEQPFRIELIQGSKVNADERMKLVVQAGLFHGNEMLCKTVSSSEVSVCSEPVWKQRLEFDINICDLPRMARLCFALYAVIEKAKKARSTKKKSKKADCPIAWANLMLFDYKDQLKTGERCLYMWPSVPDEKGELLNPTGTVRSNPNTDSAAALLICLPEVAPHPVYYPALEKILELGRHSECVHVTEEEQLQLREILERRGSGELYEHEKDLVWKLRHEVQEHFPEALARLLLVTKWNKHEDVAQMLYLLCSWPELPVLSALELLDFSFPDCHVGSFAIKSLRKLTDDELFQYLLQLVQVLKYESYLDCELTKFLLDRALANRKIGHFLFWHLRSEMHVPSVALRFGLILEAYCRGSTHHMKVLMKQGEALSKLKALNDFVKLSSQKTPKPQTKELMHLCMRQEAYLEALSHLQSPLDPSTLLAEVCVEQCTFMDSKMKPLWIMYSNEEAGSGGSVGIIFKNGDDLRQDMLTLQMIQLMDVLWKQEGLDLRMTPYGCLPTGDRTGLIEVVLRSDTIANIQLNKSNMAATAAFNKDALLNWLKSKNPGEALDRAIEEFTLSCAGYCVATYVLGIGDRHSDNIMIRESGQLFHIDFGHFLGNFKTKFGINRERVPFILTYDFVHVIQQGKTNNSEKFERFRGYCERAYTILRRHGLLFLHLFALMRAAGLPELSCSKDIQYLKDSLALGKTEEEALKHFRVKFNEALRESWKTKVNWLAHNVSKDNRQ

[7] = molecular target: Phosphatidylinositol 4,5-bisphosphate 3-kinase catalytic subunit gamma isoform (Homo sapiens, UniProt P48736); assay: Inhibition of human PI3Kgamma by ADP-Glo kinase assay
Phosphatidylinositol 4,5-bisphosphate 3-kinase catalytic subunit gamma isoform, sequence (P48736 whole entry, the tested form may be a part, canonical isoform): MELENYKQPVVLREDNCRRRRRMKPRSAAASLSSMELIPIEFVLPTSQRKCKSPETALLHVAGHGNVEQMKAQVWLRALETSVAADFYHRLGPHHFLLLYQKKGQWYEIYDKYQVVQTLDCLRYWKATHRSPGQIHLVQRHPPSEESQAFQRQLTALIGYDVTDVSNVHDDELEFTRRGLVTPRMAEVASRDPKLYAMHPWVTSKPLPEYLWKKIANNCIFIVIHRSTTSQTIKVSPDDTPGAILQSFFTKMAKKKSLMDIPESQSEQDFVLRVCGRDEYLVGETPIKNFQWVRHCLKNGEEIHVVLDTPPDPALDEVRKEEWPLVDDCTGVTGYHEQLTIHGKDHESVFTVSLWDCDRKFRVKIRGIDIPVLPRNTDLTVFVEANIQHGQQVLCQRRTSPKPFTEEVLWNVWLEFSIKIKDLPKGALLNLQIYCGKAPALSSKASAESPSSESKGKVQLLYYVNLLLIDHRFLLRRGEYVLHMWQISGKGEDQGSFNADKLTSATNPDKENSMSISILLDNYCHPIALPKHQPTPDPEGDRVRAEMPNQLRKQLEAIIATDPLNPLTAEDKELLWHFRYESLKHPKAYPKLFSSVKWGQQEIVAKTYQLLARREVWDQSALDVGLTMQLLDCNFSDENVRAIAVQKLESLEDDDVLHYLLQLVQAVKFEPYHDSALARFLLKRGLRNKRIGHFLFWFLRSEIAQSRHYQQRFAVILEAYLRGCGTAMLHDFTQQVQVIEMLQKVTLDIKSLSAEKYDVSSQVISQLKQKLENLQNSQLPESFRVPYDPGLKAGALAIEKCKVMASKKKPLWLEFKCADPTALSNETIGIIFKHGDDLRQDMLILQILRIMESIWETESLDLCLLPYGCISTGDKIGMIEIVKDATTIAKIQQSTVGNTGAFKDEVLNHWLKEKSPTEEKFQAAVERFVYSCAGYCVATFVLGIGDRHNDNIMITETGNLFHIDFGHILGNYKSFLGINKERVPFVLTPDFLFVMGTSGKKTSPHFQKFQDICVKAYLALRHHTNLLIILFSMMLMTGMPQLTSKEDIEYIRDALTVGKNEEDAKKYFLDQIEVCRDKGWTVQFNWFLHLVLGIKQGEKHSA

[8] = molecular target: Phosphatidylinositol 4-phosphate 3-kinase C2 domain-containing subunit beta (Homo sapiens, UniProt O00750); assay: Inhibition of human PIK3C2beta by ADP-Glo kinase assay
Phosphatidylinositol 4-phosphate 3-kinase C2 domain-containing subunit beta, sequence (O00750 whole entry, the tested form may be a part): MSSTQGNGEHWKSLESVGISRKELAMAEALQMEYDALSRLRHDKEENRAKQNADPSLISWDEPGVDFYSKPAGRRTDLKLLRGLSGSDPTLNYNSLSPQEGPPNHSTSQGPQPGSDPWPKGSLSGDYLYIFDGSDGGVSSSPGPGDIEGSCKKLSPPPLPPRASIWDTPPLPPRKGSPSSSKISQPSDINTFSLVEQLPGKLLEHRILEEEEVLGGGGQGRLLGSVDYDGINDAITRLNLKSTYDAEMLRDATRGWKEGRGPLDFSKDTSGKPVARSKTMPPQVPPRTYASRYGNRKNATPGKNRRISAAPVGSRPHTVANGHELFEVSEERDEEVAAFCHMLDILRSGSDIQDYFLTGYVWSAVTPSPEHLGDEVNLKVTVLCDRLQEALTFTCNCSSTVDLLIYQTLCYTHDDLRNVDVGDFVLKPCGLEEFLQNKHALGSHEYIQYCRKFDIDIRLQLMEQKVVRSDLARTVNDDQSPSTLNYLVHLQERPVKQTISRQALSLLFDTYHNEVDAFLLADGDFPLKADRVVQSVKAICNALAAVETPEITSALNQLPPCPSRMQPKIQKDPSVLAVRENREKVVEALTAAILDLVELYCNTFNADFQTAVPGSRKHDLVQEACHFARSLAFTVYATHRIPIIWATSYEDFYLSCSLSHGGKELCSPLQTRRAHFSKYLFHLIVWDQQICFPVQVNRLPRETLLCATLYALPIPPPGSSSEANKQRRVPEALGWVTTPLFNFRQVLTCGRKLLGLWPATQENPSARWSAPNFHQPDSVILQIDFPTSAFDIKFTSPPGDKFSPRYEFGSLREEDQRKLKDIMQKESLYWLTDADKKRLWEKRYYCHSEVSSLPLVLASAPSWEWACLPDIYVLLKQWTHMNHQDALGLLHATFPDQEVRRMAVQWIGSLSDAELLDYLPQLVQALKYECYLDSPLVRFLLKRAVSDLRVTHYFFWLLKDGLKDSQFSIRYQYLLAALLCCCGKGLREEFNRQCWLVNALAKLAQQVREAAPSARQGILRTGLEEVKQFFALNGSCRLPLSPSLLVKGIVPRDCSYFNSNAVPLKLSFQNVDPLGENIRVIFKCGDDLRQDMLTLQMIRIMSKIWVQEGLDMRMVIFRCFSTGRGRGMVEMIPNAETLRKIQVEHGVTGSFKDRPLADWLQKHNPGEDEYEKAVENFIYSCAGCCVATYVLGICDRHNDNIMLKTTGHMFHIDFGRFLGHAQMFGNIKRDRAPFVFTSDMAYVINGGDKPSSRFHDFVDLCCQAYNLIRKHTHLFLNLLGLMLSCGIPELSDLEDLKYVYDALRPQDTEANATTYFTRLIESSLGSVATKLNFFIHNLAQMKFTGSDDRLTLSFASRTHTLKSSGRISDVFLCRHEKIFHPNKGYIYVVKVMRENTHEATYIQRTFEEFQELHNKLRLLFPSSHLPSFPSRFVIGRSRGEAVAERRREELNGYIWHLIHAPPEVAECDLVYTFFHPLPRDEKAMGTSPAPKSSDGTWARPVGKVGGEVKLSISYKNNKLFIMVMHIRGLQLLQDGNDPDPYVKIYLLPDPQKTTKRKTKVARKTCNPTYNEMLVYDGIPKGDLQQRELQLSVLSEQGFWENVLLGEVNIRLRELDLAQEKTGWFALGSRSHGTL

[9] = molecular target: Phosphatidylinositol 3-kinase catalytic subunit type 3 (Homo sapiens, UniProt Q8NEB9); assay: Inhibition of human VPS34 by ADP-Glo kinase assay
Phosphatidylinositol 3-kinase catalytic subunit type 3, sequence (Q8NEB9 whole entry): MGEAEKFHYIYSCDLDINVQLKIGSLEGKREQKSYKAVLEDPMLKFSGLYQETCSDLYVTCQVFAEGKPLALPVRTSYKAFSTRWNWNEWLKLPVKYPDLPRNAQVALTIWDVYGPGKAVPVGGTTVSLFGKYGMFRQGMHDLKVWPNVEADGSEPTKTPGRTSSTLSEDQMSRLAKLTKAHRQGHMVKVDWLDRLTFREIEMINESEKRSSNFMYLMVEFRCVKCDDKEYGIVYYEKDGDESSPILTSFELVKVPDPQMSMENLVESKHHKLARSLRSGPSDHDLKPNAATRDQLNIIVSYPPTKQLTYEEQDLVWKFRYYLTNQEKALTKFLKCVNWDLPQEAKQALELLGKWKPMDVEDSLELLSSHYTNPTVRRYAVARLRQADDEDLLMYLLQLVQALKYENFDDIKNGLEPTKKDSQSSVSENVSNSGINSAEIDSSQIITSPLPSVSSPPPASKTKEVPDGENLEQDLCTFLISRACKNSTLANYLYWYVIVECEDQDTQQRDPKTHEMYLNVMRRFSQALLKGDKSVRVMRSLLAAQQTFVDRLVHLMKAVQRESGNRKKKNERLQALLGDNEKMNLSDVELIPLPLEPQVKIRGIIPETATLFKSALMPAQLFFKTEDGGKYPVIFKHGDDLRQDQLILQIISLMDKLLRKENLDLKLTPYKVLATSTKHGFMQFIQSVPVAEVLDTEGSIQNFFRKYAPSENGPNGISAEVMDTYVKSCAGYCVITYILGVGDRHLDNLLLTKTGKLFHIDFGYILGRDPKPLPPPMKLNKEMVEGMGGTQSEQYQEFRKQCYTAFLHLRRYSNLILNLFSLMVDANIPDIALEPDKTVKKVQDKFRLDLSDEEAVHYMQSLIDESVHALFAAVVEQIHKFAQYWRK

[10] = molecular target: Phosphatidylinositol 4-kinase alpha (Homo sapiens, UniProt P42356); assay: Inhibition of human PI4K3alpha by ADP-Glo kinase assay
[11] = molecular target: Phosphatidylinositol 4-kinase beta (Homo sapiens, UniProt Q9UBF8); assay: Inhibition of human PI4K3beta by ADP-Glo kinase assay
Phosphatidylinositol 4-kinase beta, sequence (Q9UBF8 whole entry): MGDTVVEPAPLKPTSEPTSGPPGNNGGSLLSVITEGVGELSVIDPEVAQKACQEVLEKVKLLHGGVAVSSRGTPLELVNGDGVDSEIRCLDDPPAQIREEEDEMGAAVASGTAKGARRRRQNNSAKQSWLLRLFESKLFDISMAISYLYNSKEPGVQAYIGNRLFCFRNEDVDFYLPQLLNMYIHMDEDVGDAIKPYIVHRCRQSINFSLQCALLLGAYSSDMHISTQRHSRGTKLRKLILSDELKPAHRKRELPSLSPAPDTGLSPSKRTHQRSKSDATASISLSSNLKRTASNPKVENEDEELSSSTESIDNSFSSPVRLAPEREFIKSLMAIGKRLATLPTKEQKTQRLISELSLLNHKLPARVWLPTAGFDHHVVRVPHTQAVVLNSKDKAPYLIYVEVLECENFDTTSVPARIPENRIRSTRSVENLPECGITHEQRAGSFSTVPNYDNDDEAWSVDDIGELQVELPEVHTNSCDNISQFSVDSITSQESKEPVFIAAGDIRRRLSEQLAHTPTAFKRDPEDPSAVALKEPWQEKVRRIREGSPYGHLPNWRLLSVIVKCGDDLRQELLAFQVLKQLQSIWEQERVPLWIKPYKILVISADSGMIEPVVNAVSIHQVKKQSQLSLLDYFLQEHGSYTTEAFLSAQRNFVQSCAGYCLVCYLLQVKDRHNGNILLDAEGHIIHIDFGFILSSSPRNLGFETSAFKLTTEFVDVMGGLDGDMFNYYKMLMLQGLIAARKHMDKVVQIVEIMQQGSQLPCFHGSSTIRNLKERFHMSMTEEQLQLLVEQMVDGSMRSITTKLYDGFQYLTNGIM

Plasmodium falciparum [12] = assay: Antimalarial activity against artemisinin resistant Plasmodium falciparum 803 infected in human O+ erythrocytes incubated for 72 hrs by SYBR Green 1 dye based fluorescence assay; format: functional, organism-based; conditions: Plasmodium falciparum, 803, Erythrocyte
Plasmodium falciparum [13] = assay: Antimalarial activity against artemisinin and piperaquine-phosphate resistant Plasmodium falciparum 6320 infected in human O+ erythrocytes incubated for 72 hrs by SYBR Green 1 dye based fluorescence assay; format: functional, organism-based; conditions: Plasmodium falciparum, 6320, Erythrocyte
Plasmodium falciparum [14] = assay: Antimalarial activity against Plasmodium falciparum GB4 infected in human O+ erythrocytes incubated for 72 hrs by SYBR Green 1 dye based fluorescence assay; format: functional, organism-based; conditions: GB4, Erythrocyte
Plasmodium falciparum [15] = assay: Antimalarial activity against chloroquine resistant Plasmodium falciparum FAB9 infected in human O+ erythrocytes incubated for 72 hrs by SYBR Green 1 dye based fluorescence assay; format: functional, organism-based; conditions: FAB9, Erythrocyte
Plasmodium falciparum [16] = assay: Antimalarial activity against pyrimethamine/chloroquine resistant Plasmodium falciparum C2A infected in human O+ erythrocytes incubated for 72 hrs by SYBR Green 1 dye based fluorescence assay; format: functional, organism-based; conditions: Erythrocyte
Plasmodium falciparum [17] = assay: Antimalarial activity against chloroquine resistant Plasmodium falciparum D10 infected in human O+ erythrocytes incubated for 72 hrs by SYBR Green 1 dye based fluorescence assay; format: functional, organism-based; conditions: D10, Erythrocyte
Plasmodium falciparum [18] = assay: Antimalarial activity against pyrimethamine/chloroquine resistant Plasmodium falciparum PC26 infected in human O+ erythrocytes incubated for 72 hrs by SYBR Green 1 dye based fluorescence assay; format: functional, organism-based; conditions: PC26, Erythrocyte
Plasmodium falciparum [19] = assay: Antimalarial activity against pyrimethamine/chloroquine resistant Plasmodium falciparum CP286 infected in human O+ erythrocytes incubated for 72 hrs by SYBR Green 1 dye based fluorescence assay; format: functional, organism-based; conditions: CP286, Erythrocyte
[20] = Inhibition of human PIK3C2alpha by ADP-Glo kinase assay

| SMILES | EC50 (Plasmodium falciparum [1]) [nM] | IC50 [2] [nM] | further results |
| --- | --- | --- | --- |
| CNC(=O)c1cncc(-c2cnc(Cl)c(NS(=O)(=O)c3ccc(F)cc3F)c2)c1 | 3400 | 0.4 |  |
| CCS(=O)(=O)Nc1cc(-c2cncc(C(=O)NC)c2)cnc1Cl | 3500 | 52.6 |  |
| CNC(=O)c1cncc(-c2cnc(Cl)c(NS(=O)(=O)c3ccc(C)cc3C)c2)c1 | 39 | 2.2 |  |
| Cn1cc(-c2cnc(Cl)c(NS(=O)(=O)c3ccccc3)c2)cn1 | 1490 | 10 |  |
| C[C@H](CN)NC(=O)c1cncc(-c2cnc(Cl)c(NS(=O)(=O)c3ccccc3)c2)c1 | > 10000 | > 40 |  |
| O=C(NCc1ccccc1)c1cncc(-c2cnc(Cl)c(NS(=O)(=O)c3ccccc3)c2)c1 | 3570 | 8.5 |  |
| CNC(=O)c1cncc(-c2cnc(Cl)c(NS(=O)(=O)c3ccc(C)cc3)c2)c1 | 39 | 1.2 |  |
| CNC(=O)c1cncc(-c2cnc(Cl)c(NS(=O)(=O)c3ccc(-c4ccccc4)cc3)c2)c1 | 5880 | 8.8 |  |
| CNC(=O)c1cncc(-c2cnc(Cl)c(NS(=O)(=O)c3cccc(C(F)(F)F)c3)c2)c1 | 3500 | 2.5 |  |
| O=C(Nc1cccc(F)c1)c1cncc(-c2cnc(Cl)c(NS(=O)(=O)c3ccccc3)c2)c1 | > 10000 | > 156 |  |
| CNC(=O)c1cncc(-c2cnc(Cl)c(NS(=O)(=O)c3ccc(C(F)(F)F)cc3)c2)c1 | 130 | > 156 |  |
| CNC(=O)c1cncc(-c2cnc(Cl)c(NS(=O)(=O)c3ccc4c(c3)CCO4)c2)c1 | 340 | 4.5 |  |
| NCCNC(=O)c1cncc(-c2cnc(Cl)c(NS(=O)(=O)c3ccccc3)c2)c1 | 130 | 13.8 |  |
| O=S(=O)(Nc1cc(-c2cnc3[nH]ncc3c2)cnc1Cl)c1ccccc1 | 4670 | 5.6 |  |
| CNC(=O)c1ccc(-c2cnc3cnc(C(=O)N(C)c4ccc(Cl)cc4)cn23)cc1 | 41.1 | 1.6 | EC50 (Plasmodium falciparum [3]): 46.7 nM; IC50 [4]: > 10000 nM; IC50 [5]: 2730 nM; IC50 [6]: 3100 nM; IC50 [7]: 5920 nM; IC50 [8]: > 10000 nM; IC50 [9]: 9200 nM; IC50 [10]: 1420 nM; IC50 [11]: > 10000 nM; EC50 (Plasmodium falciparum [12]): 41.8 nM; EC50 (Plasmodium falciparum [13]): 33.6 nM; EC50 (Plasmodium falciparum [14]): 39.2 nM; EC50 (Plasmodium falciparum [15]): 44.8 nM; EC50 (Plasmodium falciparum [16]): 33.7 nM; EC50 (Plasmodium falciparum [17]): 43.9 nM; EC50 (Plasmodium falciparum [18]): 54.9 nM; EC50 (Plasmodium falciparum [19]): 31.9 nM; IC50 [20]: > 10000 nM |
| CNC(=O)c1cncc(-c2cnc(Cl)c(NS(=O)(=O)c3cccc(-c4ccccc4)c3)c2)c1 | 7700 | 7.5 |  |

| SMILES | EC50 (Plasmodium falciparum [1]) [nM] | IC50 [2] [nM] | further results |
| --- | --- | --- | --- |
| CCCS(=O)(=O)Nc1cc(-c2cncc(C(=O)NC)c2)cnc1Cl | 480 | 13.2 |  |
| CNC(=O)c1cc(-c2cnc(Cl)c(NS(=O)(=O)c3ccccc3)c2)c[nH]1 | > 10000 | > 156 |  |
| CCNC(=O)c1cncc(-c2cnc(Cl)c(NS(=O)(=O)c3ccccc3)c2)c1 | 120 | 2.3 |  |
| O=S(=O)(Nc1cc(-c2cccnc2)cnc1Cl)c1ccccc1 | 4710 | 12.7 |  |
| O=S(=O)(Nc1cc(-c2cnc3[nH]ccc3c2)cnc1Cl)c1ccccc1 | 3940 | 7.7 |  |
| CNC(=O)c1cccc(-c2cnc(Cl)c(NS(=O)(=O)c3ccccc3)c2)c1 | > 10000 | > 156 |  |
| CNC(=O)c1cc(-c2cnc(Cl)c(NS(=O)(=O)c3ccccc3)c2)ccn1 | > 10000 | > 156 |  |
| CN(C)[C@H]1CCN(C(=O)c2cncc(-c3cnc(Cl)c(NS(=O)(=O)c4ccccc4)c3)c2)C1 | > 10000 | > 156 |  |
| O=S(=O)(Nc1cc(-c2ccncc2)cnc1Cl)c1ccccc1 | > 10000 | > 156 |  |
| CNC(=O)c1cncc(-c2cnc(Cl)c(NC(=O)c3ccccc3)c2)c1 | > 10000 | > 156 |  |
| CNC(=O)c1cncc(-c2cnc(Cl)c(NS(=O)(=O)c3ccc(Cl)cc3)c2)c1 | 71 | 1.6 |  |
| CC(=O)n1ccc2cc(-c3cnc(Cl)c(NS(=O)(=O)c4ccccc4)c3)cnc21 | 1050 | 8.1 |  |
| O=C(Nc1ccccc1)c1cncc(-c2cnc(Cl)c(NS(=O)(=O)c3ccccc3)c2)c1 | 3680 | 145 |  |
| O=C(Nc1ccc(F)cc1)c1cncc(-c2cnc(Cl)c(NS(=O)(=O)c3ccccc3)c2)c1 | > 10000 | > 156 |  |
| CNC(=O)c1cncc(-c2cnc(Cl)c(NS(=O)(=O)c3ccccc3C(F)(F)F)c2)c1 | 87 | 0.5 |  |
| CNC(=O)c1cncc(-c2cnc(Cl)c(NS(=O)(=O)c3ccc(Cl)cc3Cl)c2)c1 | 120 | 1.2 |  |
